Experimental data taken from ChEMBL document CHEMBL4425188, “Synthesis and immunostimulatory activity of substituted TLR7 agonists” (Bioorg Med Chem Lett, 2016).
The source made the active and inactive calls. No cut-off for these calls is given here.

Assays:
T-cell = test: Immunostimulatory activity in CFSE-labeled human T cells assessed as TLR7 agonist-induced cell proliferation at 2 to 200 nM after 6 days by FACS analysis; type: functional, cell-based
[1] = biological target: T1, Toll-like receptor 8 (Homo sapiens) (UniProt Q9NR97); test: Agonist activity at human TLR8 expressed in HEK293 cells at 5 to 1000 ng/ml by QUANTI-blue SEAP reporter gene assay; type: cell-based
T1 sequence (whole entry): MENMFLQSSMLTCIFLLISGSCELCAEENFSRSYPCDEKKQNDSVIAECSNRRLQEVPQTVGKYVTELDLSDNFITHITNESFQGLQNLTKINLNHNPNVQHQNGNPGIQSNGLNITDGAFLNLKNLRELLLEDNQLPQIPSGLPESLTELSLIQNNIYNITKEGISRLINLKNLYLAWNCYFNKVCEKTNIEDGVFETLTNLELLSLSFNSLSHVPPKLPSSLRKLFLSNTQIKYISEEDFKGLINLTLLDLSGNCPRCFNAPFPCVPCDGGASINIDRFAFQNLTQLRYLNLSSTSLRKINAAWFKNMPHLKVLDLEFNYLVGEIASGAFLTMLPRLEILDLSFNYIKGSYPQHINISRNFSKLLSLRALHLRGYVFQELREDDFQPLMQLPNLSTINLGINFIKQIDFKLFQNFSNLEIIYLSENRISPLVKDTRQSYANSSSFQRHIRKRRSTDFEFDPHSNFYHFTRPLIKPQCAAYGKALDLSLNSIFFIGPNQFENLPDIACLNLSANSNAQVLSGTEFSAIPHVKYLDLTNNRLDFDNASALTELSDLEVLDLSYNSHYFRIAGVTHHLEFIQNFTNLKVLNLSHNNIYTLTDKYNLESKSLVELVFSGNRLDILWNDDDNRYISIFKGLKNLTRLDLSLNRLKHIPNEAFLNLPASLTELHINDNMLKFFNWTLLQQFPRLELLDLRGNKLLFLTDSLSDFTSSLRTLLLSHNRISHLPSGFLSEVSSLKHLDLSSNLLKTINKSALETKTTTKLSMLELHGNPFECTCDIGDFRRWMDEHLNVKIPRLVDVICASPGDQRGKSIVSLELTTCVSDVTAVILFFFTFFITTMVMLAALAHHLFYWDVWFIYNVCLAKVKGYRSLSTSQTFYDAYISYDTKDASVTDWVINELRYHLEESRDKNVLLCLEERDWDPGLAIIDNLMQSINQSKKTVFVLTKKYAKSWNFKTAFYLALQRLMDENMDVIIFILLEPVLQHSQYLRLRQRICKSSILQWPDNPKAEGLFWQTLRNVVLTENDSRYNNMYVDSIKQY

Homo sapiens = organism: Homo sapiens; test: Immunostimulatory activity in CFSE-labeled human NK cells assessed as TLR7 agonist-induced cell proliferation at 2 to 200 nM after 6 days by FACS analysis; type: functional
[2] = biological target: T2, Toll-like receptor 7 (Homo sapiens) (UniProt Q9NYK1); test: Agonist activity at human TLR7 expressed in HEK293 cells at <= 500 ng/ml by QUANTI-blue SEAP reporter gene assay; type: cell-based
T2 sequence (whole entry): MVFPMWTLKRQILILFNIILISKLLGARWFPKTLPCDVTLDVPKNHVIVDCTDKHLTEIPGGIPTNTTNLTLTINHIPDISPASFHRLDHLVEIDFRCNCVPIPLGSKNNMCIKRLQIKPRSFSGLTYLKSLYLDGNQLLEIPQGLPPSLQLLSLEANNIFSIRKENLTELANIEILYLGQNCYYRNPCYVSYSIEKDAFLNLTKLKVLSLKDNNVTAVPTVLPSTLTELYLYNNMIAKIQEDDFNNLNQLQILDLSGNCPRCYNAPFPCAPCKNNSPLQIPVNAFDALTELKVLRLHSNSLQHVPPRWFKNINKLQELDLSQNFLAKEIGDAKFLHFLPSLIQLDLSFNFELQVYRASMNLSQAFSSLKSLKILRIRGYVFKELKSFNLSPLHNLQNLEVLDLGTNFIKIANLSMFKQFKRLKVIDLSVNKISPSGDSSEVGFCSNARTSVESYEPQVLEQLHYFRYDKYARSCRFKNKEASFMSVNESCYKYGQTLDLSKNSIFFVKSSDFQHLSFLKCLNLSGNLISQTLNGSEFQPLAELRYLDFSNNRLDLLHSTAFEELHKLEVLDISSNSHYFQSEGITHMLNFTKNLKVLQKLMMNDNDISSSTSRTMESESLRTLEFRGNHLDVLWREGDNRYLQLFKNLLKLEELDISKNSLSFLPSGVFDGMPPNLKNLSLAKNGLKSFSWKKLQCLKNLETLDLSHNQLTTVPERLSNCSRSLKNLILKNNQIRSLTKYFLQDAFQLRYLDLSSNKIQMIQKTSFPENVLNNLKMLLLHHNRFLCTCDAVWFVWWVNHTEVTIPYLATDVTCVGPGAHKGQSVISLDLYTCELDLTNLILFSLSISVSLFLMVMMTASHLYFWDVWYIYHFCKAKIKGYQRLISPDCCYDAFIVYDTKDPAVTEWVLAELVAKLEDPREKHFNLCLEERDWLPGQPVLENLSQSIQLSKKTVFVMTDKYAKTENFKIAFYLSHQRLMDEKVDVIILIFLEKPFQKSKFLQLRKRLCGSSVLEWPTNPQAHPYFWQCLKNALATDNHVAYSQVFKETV

[3] = biological target: T3, Toll-like receptor 9 (Homo sapiens) (UniProt Q9NR96); test: Agonist activity at human TLR9 expressed in HEK293 cells at 5 to 1000 ng/ml by QUANTI-blue SEAP reporter gene assay; type: cell-based
T3 sequence (whole entry): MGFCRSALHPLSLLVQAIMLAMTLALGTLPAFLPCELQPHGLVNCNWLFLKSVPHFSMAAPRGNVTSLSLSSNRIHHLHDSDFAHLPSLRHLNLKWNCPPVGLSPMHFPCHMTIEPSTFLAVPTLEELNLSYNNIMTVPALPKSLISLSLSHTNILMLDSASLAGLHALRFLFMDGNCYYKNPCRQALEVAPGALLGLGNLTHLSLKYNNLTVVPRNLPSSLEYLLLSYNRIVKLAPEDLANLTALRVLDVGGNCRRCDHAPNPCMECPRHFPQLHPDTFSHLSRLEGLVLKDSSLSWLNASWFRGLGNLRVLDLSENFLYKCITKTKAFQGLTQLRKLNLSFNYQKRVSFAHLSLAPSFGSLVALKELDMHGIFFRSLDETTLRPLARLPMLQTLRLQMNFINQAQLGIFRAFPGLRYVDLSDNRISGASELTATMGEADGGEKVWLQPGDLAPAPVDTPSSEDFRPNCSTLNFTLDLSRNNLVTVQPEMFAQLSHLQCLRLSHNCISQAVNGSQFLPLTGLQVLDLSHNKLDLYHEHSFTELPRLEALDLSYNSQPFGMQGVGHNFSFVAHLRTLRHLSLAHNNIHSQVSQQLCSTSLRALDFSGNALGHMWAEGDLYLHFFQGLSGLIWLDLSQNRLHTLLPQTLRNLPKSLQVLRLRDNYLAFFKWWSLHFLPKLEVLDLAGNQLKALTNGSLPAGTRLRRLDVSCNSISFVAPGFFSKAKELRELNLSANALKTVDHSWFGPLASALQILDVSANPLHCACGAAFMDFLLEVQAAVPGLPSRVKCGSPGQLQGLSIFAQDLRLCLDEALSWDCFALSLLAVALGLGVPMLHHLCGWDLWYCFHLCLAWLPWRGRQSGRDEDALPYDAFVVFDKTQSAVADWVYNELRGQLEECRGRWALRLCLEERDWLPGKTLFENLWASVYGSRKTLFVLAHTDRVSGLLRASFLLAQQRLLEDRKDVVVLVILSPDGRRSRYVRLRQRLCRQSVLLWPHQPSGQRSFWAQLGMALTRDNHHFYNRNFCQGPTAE

HEK293 = test: Induction of SEAP reporter gene expression in TLR-deficient HEK293 cells at 5 to 1000 ng/ml; type: functional, cell-based; conditions: Homo sapiens
B cell = test: Immunostimulatory activity in CFSE-labeled human B cells assessed as TLR7 agonist-induced cell proliferation after 6 days by FACS analysis; type: functional, cell-based; conditions: 144 h
[4] = biological target: T2, Toll-like receptor 7 (Homo sapiens); test: Agonist activity at human TLR7 expressed in HEK293 cells at 1 ng/ml by QUANTI-blue SEAP reporter gene assay; type: cell-based
[5] = biological target: T2, Toll-like receptor 7 (Homo sapiens); test: Agonist activity at human TLR7 expressed in HEK293 cells at <= 50 ng/ml by QUANTI-blue SEAP reporter gene assay; type: cell-based

| Activity [1] | Activity [2] | Activity [3] | Activity [4] | Activity [5] | SMILES | Activity (T-cell) | Activity (Homo sapiens) | Activity (HEK293) | EC50 (B cell) |
| --- | --- | --- | --- | --- | --- | --- | --- | --- | --- |
| inactive | Active | inactive |  |  | CCCCOc1nc(N)c2nc(O)n(Cc3ccc(C(=O)NCc4ccc(OC)cc4)cc3)c2n1 | inactive | inactive | inactive | 60.5 nM |
| inactive | Active | inactive |  |  | CCCCOc1nc(N)c2nc(O)n(Cc3ccc(C(=O)NCCC(=O)N4Cc5ccccc5C#Cc5ccccc54)cc3)c2n1 |  |  | inactive |  |
| inactive | Active | inactive |  |  | CCCCOc1nc(N)c2nc(O)n(Cc3ccc(C(=O)NCCNC(=O)C4CCC(CN5C(=O)C=CC5=O)CC4)cc3)c2n1 (stereo unspecified) |  |  | inactive |  |
| inactive | Active | inactive |  |  | CCCCOc1nc(N)c2nc(NC)n(Cc3ccccc3)c2n1 | inactive | inactive | inactive | 969 nM |
| inactive |  | inactive | inactive |  | CCCCOc1nc(N)c2nc(SCC(=O)O)n(Cc3ccccc3)c2n1 |  |  | inactive |  |
| inactive |  | inactive | inactive | Active | CCCCOc1nc(N)c2nc(O)n(Cc3ccc(C(=O)NCCCCN)cc3)c2n1 | inactive | inactive | inactive | 47.4 nM |
| inactive | Active | inactive |  |  | CCCCOc1nc(N)c2nc(O)n(Cc3ccc(C(=O)NCCOCCOCCNC(=O)OC(C)(C)C)cc3)c2n1 | inactive | inactive | inactive | 46.4 nM |
